In one assay the test system is OVA-specific IgG. Nature of the assay: Adjuvant activity, anti-OVA antibodies in mice (Example 17). Format: in vivo, BALB/c mice. As to conditions: 10 μg OVA. The protocol:
First, 96-well U-bottom plastic dishes were coated overnight with 1 μg ovalbumin (OVA) in 100 μl PBS per well. The next day, the dishes were rinsed with PBS, blocked with PBS containing 5% fetal bovine serum (FBS), and rinsed with PBS again. Plasma samples from experimental animals (see below) were diluted 10^2- to 10^5-fold and added to the dishes for 2 hours, after which the dishes were again rinsed with PBS. The dishes were then incubated with biotinylated goat anti-monkey IgG detection antibodies, then rinsed with PBS and incubated with streptavidin-linked horseradish peroxidase (SA-HRP). After a final rinsing with PBS, the HRP substrate 2,2′-Azinobis [3-ethylbenzothiazoline-6-sulfonic acid]-diammonium salt was added. Color development was measured with an ELISA plate reader at 405 nm, and optical density (OD) units were converted to arbitrary “antibody units,” where a unit is defined as the inverse of the plasma dilution that produces 50% of the maximum response from a standard curve obtained by serial dilution of an ascites collected from OVA-injected mice and containing OVA-specific antibodies.
The experiment described in Example 16 was repeated, except the formulations were administered to BALB/c mice with 10 μg (Table 20) or 500 μg (Table 21) of OVA with in 100 μl. IFA was not used.
BALB/c mice were given OVA with or without SHAAYtide (SEQ ID NO:6) either intraperitoneally on days 0 and 21 (Table 20), or sub-cutaneously on days 0 and 14 (Table 21). Blood samples were collected at the indicated time points. The results, reported in antibody units, are given in Tables 20 and 21, showing IgG levels.

A further assay deals with T1, human FPRL1 (Homo sapiens, UniProt P25090).
T1 construct: Full length cDNA encoding FPRL1 was cloned, using the polymerase chain reaction (PCR), from genomic DNA isolated from undifferentiated HL-60 cells; expressed in transfected cells; linearized FPRL1/pcDNA3.1, electroporation
T1 sequence (P25090 1-351): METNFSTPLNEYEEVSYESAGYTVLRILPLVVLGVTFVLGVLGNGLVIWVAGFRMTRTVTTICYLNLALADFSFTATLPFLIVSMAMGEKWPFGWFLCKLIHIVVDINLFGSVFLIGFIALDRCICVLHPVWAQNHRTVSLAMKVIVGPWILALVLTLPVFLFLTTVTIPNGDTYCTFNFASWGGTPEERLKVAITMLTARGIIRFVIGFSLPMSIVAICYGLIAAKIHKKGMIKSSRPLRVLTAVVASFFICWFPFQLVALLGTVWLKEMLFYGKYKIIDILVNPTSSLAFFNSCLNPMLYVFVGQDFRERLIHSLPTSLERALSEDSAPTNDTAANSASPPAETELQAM
Nature of the assay: Calcium flux in FPRL1-L1.2 transfectants. Format: cell-based. As to conditions: for Designation and FPRL1 Activity: qualitative rating high, moderate, low, see Example 9; for Notes: activity: qualitative rating, Table 6. The protocol: Ca^2+ mobilization responses were performed using the intracellular ratiometric fluorescent dye, lndo-1. Cells were loaded with Indo-1/AM (3 μM; Molecular Probes, Eugene, Oreg.) in culture medium (45 min, 20° C., 10^7 cells/ml). After dye loading, cells were washed once with 10 ml PBS) and resuspended at 10^6 cell/ml in HBSS containing 1% FBS. Cytosolic [Ca^2+] release was determined using excitation at 350 nm using a Photon Technology International fluorimeter (excitation at 350 nm, ratioed dual emission at 400 and 490 nm).
The functional activities of CKβ8-1 (25-116) were investigated in human FPRL1-L1.2 transfectants and in native L1.2 cells. Stable expression of formyl peptide-like receptor 1 (FPRL1) in L.1.2 cell was obtained as follows. Full length cDNA encoding FPRL1 was cloned, using the polymerase chain reaction (PCR), from genomic DNA isolated from undifferentiated HL-60 cells. […] Twenty micrograms of the FPRL1/pcDNA3.1 construct were linearized by digestion with Bsm1 (New England Biolabs, Beverly, Mass.) and used to transfect the murine B cell line L1.2 as follows. Twenty five million cells were washed twice and resuspended in 0.8 ml of PBS. The cells were incubated for 10 min at room temperature with the linearized FPRL/pcDNA3.1 construct DNA and transferred to a 0.4-cm cuvette, and a single electroporation pulse was applied at 250 V, 960 μF. Electroporated cells were incubated for 10 min at room temperature and transferred to culture at 37° C. in RPMI supplemented with 10% FCS. Geneticin (G418) was added to a final concentration of 800 μg/ml 48 h posttransfection and the cells plated into 96-well plates at 25,000 cells/well. After 2-3 weeks under drug selection, stable geneticin-resistant FPLR1 expressing cells were assessed for their ability to mobilize Ca^++ in response to SHAAGtide or CKbeta 8-1 at concentrations of 1 to 1000 nM.
A calcium flux test was performed on these transfectants using the method described in Example 1.
Stable expression of human FPRL1 in L1.2 cells was obtained as in Example 6. Calcium flux tests were conducted on the transfectants using the method described in Example 1. Chemokines (CKβ8(1-99), CKβ8(25-99), CKβ8-1(1-116) and CKβ8-1(25-116), were prepared as in Example 1. W peptides 1 and 2 were obtained as in Example 6. In addition, and the following SHAAGtide sequences and truncated variants (prepared as in Example 8) were tested:
All ligands were added in a dose response manner and the peak calcium flux response determined.
In general terms: A change in cytosolic calcium serves as a functional read-out for many receptors and channels.

Another assay has as its system dendritic cells. Description: Dendritic cell infiltration after intradermal injection in mice (anti-DEC-205 staining). In kind it is in vivo. The arrangement: key to Dendritic cell infiltration Score / Infiltration Score: 0 = none, 1 = slight, 2 = mild, 3 = moderate, 4 = severe. As to conditions: for Infiltration Score: BALB/c mice, various doses. The text has this:
The following chemokines were obtained from R&D Systems (Minneapolis, Minn.): vMCK-2, mC10, and GM-CSF. The following peptides were synthesized at Phoenix Pharmaceuticals (San Carlos, Calif.): SHAAYtide (SEQ ID NO:6), several […] MODIFIED peptides of SHAAGtide variant (SEQ ID NO:) (i.e. cyclized using the MPR-Cys linked cyclization), control peptide (SEQ ID NO:33, […]Gin Pro Gly lie Lys Arg Arg Trp Leu Met), randomly conjugated to OVA in either a 1:1 or 1:4 ratio (by MBS coupling method), and conjugated to OVA at the C-terminus (C-term, made by the addition of a cysteine), and SHAAGtide variant (SEQ ID NO:3). In three separate experiments, chemokines or peptides (2 μg or 20 μg in PBS) were injected intradermally into BALB/c or C57BI/6 mice (Jackson Laboratory; Bar Harbor, Me.). In each experiment, one mouse received an injection of PBS only as a negative control. At various times after injection, the mice were euthanized, and the area around the injection site was excised and subjected to immunohistology. Frozen sections were stained with anti-DEC-205 antibody (Bio-Whittaker Molecular Applications; Rockland, Me.) that recognizes a dendritic cell-specific molecule (Kraal et al., 1986). A relative staining number on a scale of […] was assigned to each section (0, none; 1, slight; 2, mild; 3, moderate; 4, severe).

Setting [1] is: intraperitoneally on days 0 and 21, 0 day.

The values that follow come from patent publication US8637043B2, “Compositions useful as ligands for the formyl peptide receptor like 1 receptor and methods of use thereof” (Chemocentryx, Inc., priority 2001, dated 2014).

Where “and” joins values, the source holds several entries; their conditions need not be identical. Identical values can stand only once. Ends that are not written are not given here.

Turning to “20 μg SHAAYtide (SEQ ID NO: 6): 20 μg SHAAYtide without OVA (MLWRRKIGPQMTLSHAAY; SHAAGtide variant)”, the “anti-OVA IgG, individual mouse” value was 31 antibody units and 47 antibody units and 139 antibody units and 64 antibody units in the assay with OVA-specific IgG (setting [1]); 0 antibody units (2×) and 40 antibody units and 592 antibody units in the assay with OVA-specific IgG (intraperitoneally, 10 d); 0 antibody units (3×) and 168 antibody units with OVA-specific IgG (intraperitoneally, 15 d); 122 antibody units and 110 antibody units and 116 antibody units and 98 antibody units in the assay with OVA-specific IgG (intraperitoneally, 27 d); 12 antibody units and 32 antibody units and 69 antibody units and 47 antibody units in the assay with OVA-specific IgG (intraperitoneally, 31 d); 0 antibody units in the assay with OVA-specific IgG (intraperitoneally, 36 d). The “anti-OVA IgG, average” value in the assay on OVA-specific IgG (intraperitoneally, 0 day) came to 70 antibody units; with OVA-specific IgG (intraperitoneally, 10 d), 158 antibody units; in the assay with OVA-specific IgG (intraperitoneally, 15 d), 42 antibody units; in the assay with OVA-specific IgG (intraperitoneally, 27 d), 112 antibody units; in the assay on OVA-specific IgG (intraperitoneally, 31 d), 40 antibody units; in the assay with OVA-specific IgG (intraperitoneally, 36 d), 0 antibody units. Also, the “anti-OVA IgG, increase from day 0” value in the assay with OVA-specific IgG (intraperitoneally, 10 d) was determined as 88 antibody units; in the assay on OVA-specific IgG (intraperitoneally, 15 d), 0 antibody units; in the assay with OVA-specific IgG (intraperitoneally, 27 d), 41 antibody units; with OVA-specific IgG (intraperitoneally, 31 d), 0 antibody units; in the assay on OVA-specific IgG (intraperitoneally, 36 d), 0 antibody units.
For the substance MLWRRKIGPQMT [SEQ ID NO: 5], at human FPRL1, the “Designation and FPRL1 Activity” value was “Moderate”; the “Notes: activity” value was “Moderate”.
For the substance WRRKIGPQMTLSHAAG [SEQ ID NO: 7], the “Designation and FPRL1 Activity” value on human FPRL1 was “Low”.
In the case of MLWRRKIGPQMTLSH [SEQ ID NO: 3], on human FPRL1, the “Designation and FPRL1 Activity” value is reported as “High”; the “Notes: activity” value is listed as “High”.
Regarding “SHAAYtide (SEQ ID NO: 6), cyclized: structurally modified peptide, cyclized using the MPR-Cys linked cyclization (MLWRRKIGPQMTLSHAAY; also: cyclized using MPR-Cys linked cyclization, MPR and Cys not in given letters)”, the “Infiltration Score” value in the assay on dendritic cells (30 hours) was 1 and 2.
As for MLWRRKIGPQM [SEQ ID NO: 8], on human FPRL1, the “Designation and FPRL1 Activity” value is reported as “moderate FPRL1 activity”; the “Notes: activity” value is recorded as “Moderate”. For the same substance, the “Designation and FPRL1 Activity” value on human FPRL1 (listed as CCXP8) is reported as “Moderate”.
On to “WRRKIG [SEQ ID NO: 10, Trp Arg Arg Lys Ile Gly]”, for which the “Designation and FPRL1 Activity” value on human FPRL1 is on record as “Low”.
As for LWRRKIGPQMTLSH [SEQ ID NO: 11], the “Designation and FPRL1 Activity” value was “does not result in a complete loss in FRPL1 activity” with human FPRL1 and “Moderate” with human FPRL1 (listed as CCXP11). For the same substance, the “Notes: activity” value with human FPRL1 is on record as “Moderate”.
For “2 μg SHAAYtide (SEQ ID NO: 6): 2 μg SHAAYtide without OVA (MLWRRKIGPQMTLSHAAY; SHAAGtide variant)”, the “anti-OVA IgG, individual mouse” value with OVA-specific IgG (setting [1]) is 7 antibody units (2×) and 14 antibody units and 24 antibody units; in the assay with OVA-specific IgG (intraperitoneally, 10 d), 0 antibody units (3×) and 273 antibody units; in the assay on OVA-specific IgG (intraperitoneally, 15 d), 0 antibody units; in the assay with OVA-specific IgG (intraperitoneally, 27 d) it was 47 antibody units (2×) and 58 antibody units; with OVA-specific IgG (intraperitoneally, 31 d), 47 antibody units and 17 antibody units and 12 antibody units and 0 antibody units; in the assay with OVA-specific IgG (intraperitoneally, 36 d), 60 antibody units (2×) and 46 antibody units and 0 antibody units. Also, the “anti-OVA IgG, average” value is on record as 13 antibody units in the assay with OVA-specific IgG (intraperitoneally, 0 day); 68 antibody units in the assay on OVA-specific IgG (intraperitoneally, 10 d); 0 antibody units in the assay on OVA-specific IgG (intraperitoneally, 15 d); 51 antibody units in the assay with OVA-specific IgG (intraperitoneally, 27 d); 19 antibody units in the assay with OVA-specific IgG (intraperitoneally, 31 d); 42 antibody units in the assay with OVA-specific IgG (intraperitoneally, 36 d). Also, the “anti-OVA IgG, increase from day 0” value in the assay on OVA-specific IgG (intraperitoneally, 10 d) is listed as 55 antibody units; with OVA-specific IgG (intraperitoneally, 15 d) it was 0 antibody units; with OVA-specific IgG (intraperitoneally, 27 d), 38 antibody units; with OVA-specific IgG (intraperitoneally, 31 d), 6 antibody units; in the assay on OVA-specific IgG (intraperitoneally, 36 d) it was 29 antibody units.
Consider GM-CSF, for which the “Infiltration Score” value in the assay on dendritic cells (6 hours) is 2 and 1; in the assay on dendritic cells (30 hours), 1. For the same substance, the “infiltration of DEC-205-labeled cells” value in the assay with dendritic cells (summary of Tables 15, 16 and 17) is “excellent infiltration”.
For the substance WRRKIGPQM [SEQ ID NO: 9], the “Designation and FPRL1 Activity” value on human FPRL1 is reported as “Low”.
In the case of RRKIGPQMTLSHAAG [SEQ ID NO: 2], the IC50 at human FPRL1 (peak calcium flux, dose response, read-out: Induction of Calcium Flux in FPRL1 L1.2 Cells, IC 50) was > 50 µM.
Consider IGPQMTLSHAAG [SEQ ID NO: 4], for which the “Designation and FPRL1 Activity” value at human FPRL1 is on record as “Low”.
